The target in the test is T1, NTSR1 (NTR1) (Homo sapiens, UniProt P30989).
T1 construct: host or cells: CHO-K1
The test can be described thus: NTR1 β-Arrestin dose response (DiscoveRx PathHunter, CHO-K1). In kind it is cell-based. How it is done:
The NTR1 β-Arrestin assays were performed using a PathHunter™ eXpress kit (93-0446E2) which contained the NTSR1 (NTR1) CHO cell line, OCC2 media (30-409), as well as the PathHunter Detection Reagents (93-0446E2). The kit was obtained from DiscoveRx (Fremont, Calif.). The assay employed the same neurotensin 1 peptide as a control as was used in the NTR1 primary assay. The assay was run in 1536-well, white, solid-bottom tissue culture plates (3727) from Corning.
On day one of the assay, 5 uL of a cell suspension containing 120,000 NTSR1 (NTR1) CHO-K1 cells per mL in OCC2 media is added to each well of a 1536-well assay plate using a Multidrop Combi. The assay plates are then incubated for 48 hours at 37° C., under 5% CO2. Following the two day incubation, a volume of 20, 10, and 5 nL of 10 and 1.2 mM test compounds in DMSO were transferred from source wells to test compound wells in assay plates with a LabCyte Echo to achieve final assay concentrations ranging from 33 to 1.03 uM for each test sample. Test compound wells and control wells were backfilled with DMSO to achieve a final volume of DMSO of 20 nL or a final assay concentration of 0.33%. […] Plates are again centrifuged as previously described then incubated at room temperature for 1 hour before being read on the PerkinElmer using a luminescent protocol.

T1 sequence (P30989 whole entry): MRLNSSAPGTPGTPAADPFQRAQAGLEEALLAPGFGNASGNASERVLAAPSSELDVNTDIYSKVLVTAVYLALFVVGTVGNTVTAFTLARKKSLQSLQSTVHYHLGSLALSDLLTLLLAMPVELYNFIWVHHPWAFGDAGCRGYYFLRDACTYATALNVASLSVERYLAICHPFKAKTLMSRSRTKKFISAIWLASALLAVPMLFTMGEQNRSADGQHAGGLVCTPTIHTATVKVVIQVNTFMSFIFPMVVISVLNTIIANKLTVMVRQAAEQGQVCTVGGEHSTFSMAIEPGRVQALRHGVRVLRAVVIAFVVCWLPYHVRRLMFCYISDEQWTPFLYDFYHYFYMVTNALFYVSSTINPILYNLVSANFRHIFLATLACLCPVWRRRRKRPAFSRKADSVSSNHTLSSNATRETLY

One may read the EC50 as the concentration giving half of the maximal effect. Low values mean a more potent agent, high ones a less potent agent. In the case of `COc1cc2nc(C3CC3)nc(N3CCN(c4ccccc4OC)CC3)c2cc1OC` [Compound 315, 2-cyclopropyl-6,7-dimethoxy-4-(4-(2-methoxyphenyl)piperazin-1-yl)quinazoline], the EC50 was determined as 3.41 µM.
